The results in this text go back to PMC4801399, “Impact of a CXCL12/CXCR4 Antagonist in Bleomycin (BLM) Induced Pulmonary Fibrosis and Carbon Tetrachloride (CCl4) Induced Hepatic Fibrosis in Mice” (PLoS ONE, 2016).

This test concerns CCl4-induced hepatic fibrosis. Briefly: CCl4-induced murine model of hepatic fibrosis. It counts as in vivo, C57BL/6 mice. The text has this:
Hepatic fibrosis was induced in eleven week old female C57BL/6 mice from JAX Labs. Animals were randomly divided into three groups: oil plus vehicle (PBS) control, CCl4 plus vehicle (PBS) control and CCl4 plus AMD070. As some animals were euthanized prior to study completion because they had reached a humane endpoint, final group numbers were n = 9 for oil plus vehicle (PBS) control, n = 6 for CCl4 plus vehicle (PBS) control and n = 7 for CCl4 plus AMD070 groups. […] Starting one day prior to the initial CCl4 treatment (day -1), dosing with either AMD070 reconstituted in PBS (50 mg/kg) or PBS vehicle control (10 mL/kg) was administered IP and continued 5 days/week for 4 weeks. Specifically, AMD070 or PBS treatments were not performed on the 2 days/week on which animals were given CCl4 (or olive oil vehicle control). One day after the last AMD070 or PBS treatment, animals were euthanized with CO2.
Livers were perfused with PBS then 10% formalin and the left top lobe preserved in 10% neutral buffer formalin (NBF) for a week. The fixed liver was embedded in paraffin, six cross sections at 500 μm apart generated and stained with Picrosirius Red. For quantitation of percent hepatic fibrosis, fibrotic area (Picrosirius Red) was divided by total liver area and multiplying by 100. Three histology slides/animal were analyzed. The three slides corresponded to one slide from each of the alternative six cross sections. These analyses were performed with Olympus cellSens and the analyst was blinded to sample identity.
The top right lobe of livers were homogenized in 1 mL of Trizol (Invitrogen) and flash frozen in dry ice and stored in -80°C for RNA isolation to perform RT-qPCR. Total RNA was isolated and cDNA prepared using the High Capacity cDNA Reverse Transcription kit according to the manufacturer’s instructions (Life Technologies). RT-qPCR was carried out as previously described using the standard curve method. The following primer/probe sets were used to detect: Acta2 (IDT Assay–N007392.1), Probe- 5’-/56-FAM/TTACAGAGC/ZEN/CCAGAGCCATTGTCG/3IABkFQ/3’, Primer 1–5’-[…]-3’, Primer 2: 5’-[…]-3’; Col1a1 (Life Technologies custom primer/probe mix), primer 1–5’-[…], primer 2–5’- […], probe- 5’-FAM-ACACCGGAACTTGGG-MGBNFQ; Tbp (Life Technologies custom primer/probe mix), Primer 1–5’-[…], Primer 2–5’-TGGCTCCTGTGCACACCAT, Probe- 5’-FAM-CGTTGATTTTCAGTTCTGG-MGBNFQ; Gapdh (IDT Assay–Mm.PT.39a.1), probe- 5’-/56-FAM/TGCAAATGG/ZEN/CAGCCCTGGTG/3IABkFQ/3’, primer 1–5’-AATGGTGAAGGTCGGTGTG-3’, primer 2–5’-[…]-3’.
Five μL of serum was used with the AST Activity Assay Kit (Sigma MAK055) as per manufacturer’s instructions to determine serum AST levels.

Setting [1] is: RT-qPCR relative to Gapdh and Tbp, CCl4 plus AMD070 vs CCl4 plus PBS.

Take `NCCCCN(Cc1nc2ccccc2[nH]1)[C@H]1CCCc2cccnc21` [AMD070]: the “percent liver fibrosis (Picrosirius red staining)” value (CCl4 plus AMD070 50 mg/kg IP 5 days/week for 4 weeks, group average, CCl4 plus PBS 3.2%) amounted to 3.6%. Further, the “mortality rate between groups” value (CCl4 plus AMD070 50 mg/kg IP vs control groups) was “no difference”. Under setting [1], the “liver Acta2 (αSma) relative transcription level” value is listed as “not different” and the “liver Col1a1 relative transcription level” value is “not different”. Besides, the “serum AST levels” value (after 4 weeks, CCl4 plus AMD070 vs CCl4 plus vehicle control) was “no difference”.
